From ChEMBL document CHEMBL1150136, “Limnazine, the first bacterial azine derivative from Bacillus sp. GW90a” (J Nat Prod, 2002)
The source made the active and inactive calls.

Assays:
Format in all cases: functional, organism-based
[1] = tested on: Chlorella sorokiniana; experiment: Antialgal activity against Chlorella sorokiniana by agar diffusion test
[2] = tested on: Escherichia coli; experiment: Antibacterial activity against Escherichia coli up to 100 ug/mL by agar diffusion test
[3] = tested on: Bacillus subtilis; experiment: Antibacterial activity against Bacillus subtilis up to 100 ug/mL by agar diffusion test
[4] = tested on: Staphylococcus aureus; experiment: Antibacterial activity against Staphylococcus aureus by agar diffusion test
[5] = tested on: Chlorella vulgaris; experiment: Antialgal activity against Chlorella vulgaris up to 100 ug/mL by agar diffusion test
[6] = tested on: Rhizomucor miehei; experiment: Antifungal activity against Mucor miehei by agar diffusion test
[7] = tested on: Chlorella salina; experiment: Antialgal activity against Chlorella salina by agar diffusion test

Measured: Activity

Cc1ccc2c(c1)/C(=N\N=C1/CC(C)(C)Oc3ccc(C)cc31)CC(C)(C)O2
inactive: all assays above
